Data set [1] deals with T1, ROCK1 human recombinant enzyme (Homo sapiens, UniProt Q13464).
T1 construct: purchased EUROFINS-CEREP France (contract assay, study numbers 100033685 and 100040481); host or cells: Sf9 insect cells
The experiment in a line: ROCK1 inhibition assay (Eurofins-Cerep, phosphorylation of Ulight-RRRSLLE substrate). The format is biochemical. Here is the method:
(§1) The analysis was performed using software developed at Cerep (Hill software) and GraphPad Prism® 5.0 (GraphPad Software, Inc., San Diego, CA) and validated through comparison with results generated using the SigmaPlot 4.0 software.
(§2) Prior to this assay, we evaluated the solubility of these compounds in water (buffer pH 7.4) to ensure that the inhibition percentages were not influenced by the precipitation of the compounds under test conditions.

Data set [2] deals with T2, ROCK2 human recombinant enzyme (Homo sapiens, UniProt O75116).
T2 construct: purchased EUROFINS-CEREP France (contract assay, study numbers 100033685 and 100040481); host or cells: Sf21 insect cells
T2 sequence (O75116 1-543 limits assumed): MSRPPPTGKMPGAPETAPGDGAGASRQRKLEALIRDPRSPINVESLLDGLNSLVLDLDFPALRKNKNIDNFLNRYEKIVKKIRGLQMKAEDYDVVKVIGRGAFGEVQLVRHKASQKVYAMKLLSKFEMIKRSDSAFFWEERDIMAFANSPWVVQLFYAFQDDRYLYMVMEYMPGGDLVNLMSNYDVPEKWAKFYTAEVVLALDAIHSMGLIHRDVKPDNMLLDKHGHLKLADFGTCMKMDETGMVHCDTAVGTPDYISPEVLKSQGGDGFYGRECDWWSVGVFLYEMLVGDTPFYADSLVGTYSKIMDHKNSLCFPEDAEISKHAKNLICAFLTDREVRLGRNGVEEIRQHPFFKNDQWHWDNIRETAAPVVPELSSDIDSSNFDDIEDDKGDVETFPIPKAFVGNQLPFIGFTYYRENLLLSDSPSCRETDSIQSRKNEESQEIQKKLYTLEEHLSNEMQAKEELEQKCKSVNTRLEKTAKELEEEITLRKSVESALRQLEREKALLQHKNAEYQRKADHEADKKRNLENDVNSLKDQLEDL
The experiment in a line: ROCK2 inhibition assay (Eurofins-Cerep, phosphorylation of Ulight-RRRSLLE substrate). The format is biochemical. On the procedure:
as §1, §2

The nature of data set [3]: Chemical stability study (pH 2.0 and pH 7.4 buffers). The format is physicochemical. The conditions noted are these: 37 °C. Here is the method:
Two microliters ([…]) of a concentrated solution of the compound under examination (40 mM stock solution solubilized in DMSO) and 248 μL of acid (0.2 M potassium chloride and 0.2 M HCl; pH 2.0) or neutral (phosphate dibasic, pH 7.4) buffer were added to a 2 ml Eppendorf microtube. After vortexing, the mixture was placed in a water bath at 37 °C under vigorous stirring for 0, 30, 60, 120, and 240 min. After each reaction, 248 μL of basic buffer (phosphate buffer, pH 8.4) was added to neutralize the pH of the medium in the experiments using acidic buffer. The compound was extracted using 1 ml of acetonitrile followed by vigorous vortexing and freezing of the aqueous phase (−10 °C). The organic phase was separated, filtered, and analysed using an HPLC-PDA (acetonitrile/water […], 0.05% of TFA).
Due to the possible chemical instability of the imine functional group present in the N-sulphonylhydrazone framework, the stability profiles of compounds 5b (LASSBio-2020) and 11 (LASSBio-2065) were determined. The study was conducted under two conditions, pH 2.0 and pH 7.4, to mimic the acidic stomach and the neutral plasma environments, respectively. The compounds were examined in the presence of acid (pH 2) and neutral (pH 7.4) buffers with stirring for 240 min at a controlled temperature (37 °C).

Where [4] appears, read: screening concentration 3 μM, average of two experiments.

T1 sequence (Q13464 whole entry): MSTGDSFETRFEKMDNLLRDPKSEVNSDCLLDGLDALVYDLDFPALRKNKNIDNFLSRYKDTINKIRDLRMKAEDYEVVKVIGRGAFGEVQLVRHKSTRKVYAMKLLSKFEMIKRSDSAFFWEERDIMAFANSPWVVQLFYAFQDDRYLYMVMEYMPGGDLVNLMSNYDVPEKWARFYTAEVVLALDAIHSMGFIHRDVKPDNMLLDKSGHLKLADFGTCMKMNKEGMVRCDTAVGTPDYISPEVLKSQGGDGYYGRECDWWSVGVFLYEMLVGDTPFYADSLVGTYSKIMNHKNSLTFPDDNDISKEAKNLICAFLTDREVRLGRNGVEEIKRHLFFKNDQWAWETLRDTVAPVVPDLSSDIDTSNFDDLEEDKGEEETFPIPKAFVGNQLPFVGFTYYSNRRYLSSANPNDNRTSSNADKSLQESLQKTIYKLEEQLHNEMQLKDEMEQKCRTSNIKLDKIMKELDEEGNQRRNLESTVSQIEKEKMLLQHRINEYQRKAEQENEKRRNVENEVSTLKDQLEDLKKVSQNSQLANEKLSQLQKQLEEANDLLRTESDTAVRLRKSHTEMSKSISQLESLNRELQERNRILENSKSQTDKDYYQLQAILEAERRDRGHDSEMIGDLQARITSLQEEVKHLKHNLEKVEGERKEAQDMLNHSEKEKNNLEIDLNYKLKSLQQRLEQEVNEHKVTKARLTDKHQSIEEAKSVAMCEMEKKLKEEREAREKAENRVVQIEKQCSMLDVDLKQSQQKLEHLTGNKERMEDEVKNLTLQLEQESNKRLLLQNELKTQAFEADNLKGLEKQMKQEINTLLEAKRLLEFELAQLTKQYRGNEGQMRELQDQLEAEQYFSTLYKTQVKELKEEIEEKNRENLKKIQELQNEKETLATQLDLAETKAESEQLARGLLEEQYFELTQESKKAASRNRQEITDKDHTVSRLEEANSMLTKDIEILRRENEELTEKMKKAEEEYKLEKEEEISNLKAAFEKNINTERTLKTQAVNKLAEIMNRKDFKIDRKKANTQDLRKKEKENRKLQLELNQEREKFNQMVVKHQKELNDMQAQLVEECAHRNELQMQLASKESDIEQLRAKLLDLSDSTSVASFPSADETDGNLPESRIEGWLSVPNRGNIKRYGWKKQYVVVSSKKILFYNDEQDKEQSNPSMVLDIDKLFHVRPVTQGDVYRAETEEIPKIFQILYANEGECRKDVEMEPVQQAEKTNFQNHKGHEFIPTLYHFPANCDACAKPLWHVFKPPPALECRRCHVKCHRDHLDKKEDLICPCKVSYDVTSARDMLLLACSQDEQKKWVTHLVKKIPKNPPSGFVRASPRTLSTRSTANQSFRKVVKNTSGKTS

As usually defined, the IC50 is the concentration that gives 50% inhibition. The term inhibition denotes the drop in the measured response relative to a control, in per cent. By melting point is commonly meant the temperature of the solid-liquid transition. `O=S(=O)(N/N=C/c1ccccc1)c1cccc2cnccc12` [Compound 5b, (E)-N′-benzylideneisoquinoline-5-sulphonohydrazide]: the melting point worked out at 172 °C. Further, in data set [1] (human recombinant ROCK1, five-point assay, 1 to 50 µM, mean of two experiments), the 50% inhibitory concentration (IC50) stood at 13 µM. In addition, in data set [1] (setting [4]), the inhibition at 3 µM was found to be 29%. For the same compound, in data set [2] (human recombinant ROCK2, five-point assay, 1 to 50 µM, mean of two experiments), the IC50 came out at 7.1 µM. For the same compound, the inhibition at 3 µM in data set [2] (setting [4]) was 24.2%. The “recovery percentage under acidic conditions” value in data set [3] (pH 2, after 30 min of incubation) is recorded as 64%. Besides, the “degradation in neutral medium” value in data set [3] (pH 7.4, after 4 h) was “less than 20%”.

The values are drawn from PMC6060383, “Synthesis and pharmacological evaluation of novel isoquinoline N-sulphonylhydrazones designed as ROCK inhibitors” (Journal of Enzyme Inhibition and Medicinal Chemistry, 2018).
